Drawing on the NIST ThermoML archive (doi:10.1021/acs.jced.5b00893), this text covers mass density for four molecules.

Numbers after ± are expanded uncertainties.

The conditions of this series: 293.15 K; 101.33 kPa; Liquid; Vibrating tube method.

The mass density is mass per unit of volume. Turning to `CN1CCN(C)C1=O` [1,3-dimethyl-2-imidazolidinone], the mass density was determined as 1058 ± 2 kg/m3. As to `CN1CCCN(C)C1=O` [1,3-dimethyl-3,4,5,6-tetrahydro-2(1H)-pyrimidinone], the mass density is given as 1065 ± 2 kg/m3.

Take `CCCCOC(=O)C(C)O` (centres undefined) [butyl 2-hydroxypropanoate]: the mass density is on record as 982 ± 2 kg/m3. `O=C1CCCO1` [γ-butyrolactone]: the mass density is 1129 ± 2 kg/m3.
